Measurements taken from patent publication US8785160B2, “Prebiotic formulations and methods of use” (Ritter Pharmaceuticals, Inc., priority 2009, dated 2014).

System: Bifidobacterium species
Assay: Comparative growth of Bifidobacterium species and strains on 2% carbohydrate in scratch MRS
Assay type: cell-based
Conditions: scratch MRS + 2% carbohydrate, 37 C

OC[C@H]1O[C@@H](O[C@H]2[C@H](O)[C@@H](O)C(O)O[C@@H]2CO)[C@H](O)[C@@H](O)[C@H]1O (stereo partly shown) [lactose]
comparative growth of Bifidobacterium species on four carbohydrate sources (glucose, lactose, GOS1, GOS2): none of the Bifidobacterium strains used in these experiments grew on lactose
